Reference: US20100056524A1, “Compound” (priority 2008, published 2010)
Structures can show the parent of a compound that is named as a salt.

Target: T1, TBK1 (Homo sapiens, UniProt Q9UHD2)
T1 construct: All protein kinases were of human origin and encoded full length proteins, unless indicated otherwise; His6; made in house; host or cells: insect Sf21 cells
T1 sequence (Q9UHD2 1-729): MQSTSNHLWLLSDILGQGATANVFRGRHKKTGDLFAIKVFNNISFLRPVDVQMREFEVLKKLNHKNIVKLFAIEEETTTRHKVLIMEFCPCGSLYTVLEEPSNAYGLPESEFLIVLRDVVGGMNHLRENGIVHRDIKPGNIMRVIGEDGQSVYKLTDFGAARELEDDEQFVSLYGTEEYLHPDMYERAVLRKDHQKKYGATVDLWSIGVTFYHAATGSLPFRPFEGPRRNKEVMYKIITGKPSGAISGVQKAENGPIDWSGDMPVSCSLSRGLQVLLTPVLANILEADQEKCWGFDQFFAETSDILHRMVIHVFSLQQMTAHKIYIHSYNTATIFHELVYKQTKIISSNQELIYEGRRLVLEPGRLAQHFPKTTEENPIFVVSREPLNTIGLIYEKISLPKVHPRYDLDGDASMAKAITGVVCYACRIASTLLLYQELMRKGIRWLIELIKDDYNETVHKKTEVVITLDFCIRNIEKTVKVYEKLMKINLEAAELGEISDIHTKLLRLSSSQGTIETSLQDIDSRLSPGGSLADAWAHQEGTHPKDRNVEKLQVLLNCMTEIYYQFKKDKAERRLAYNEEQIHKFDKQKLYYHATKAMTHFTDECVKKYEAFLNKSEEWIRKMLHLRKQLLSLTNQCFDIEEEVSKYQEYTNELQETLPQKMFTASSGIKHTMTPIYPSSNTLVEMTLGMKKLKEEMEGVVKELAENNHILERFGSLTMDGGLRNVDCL
Assay: TBK1 protein kinase assay ([γ-33P]ATP, P81 filterplates)
Assay type: biochemical
Conditions: 50 μM ATP; read-out: Potency (TBK1 IC50 potency score)
Summary of the method: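 Human TBK1 assayed for 30 min with peptide substrate (300 μM), 50 μM [γ-33P]ATP and 10 mM magnesium acetate in 50 mM Tris/HCl pH 7.5, 0.1 mM EGTA, 0.1% 2-mercaptoethanol. Stopped with orthophosphoric acid and counted on P81 filters. IC50 from 10 compound concentrations.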

Row | Compound | IC50
1 | O=C(NCCc1c[nH]cn1)c1cccc(Nc2ncc(C3CC3)c(NCCCNC(=O)C3CCC3)n2)c1 [Example 74, 3-{4-[3-(Cyclobutanecarbonyl-amino)-propylamino]-5-cyclopropyl-pyrimidin-2-ylamino}-N-[2-(1H-imidazol-4-yl)-ethyl]-benzamide] | < 100 nM
2 | O=C(NCCCNc1nc(Nc2cccc(C(=O)N3CCOCC3)c2)ncc1C1CC1)C1CCC1 [Example 75, Cyclobutanecarboxylic acid (3-{5-cyclopropyl-2-[3-(morpholine-4-carbonyl)-phenylamino]-pyrimidin-4-ylamino}-propyl)-amide] | < 100 nM
3 | CN1CCN(C(=O)c2cccc(Nc3ncc(C4CC4)c(NCCCNC(=O)C4CCC4)n3)c2)CC1 [Example 77, Cyclobutanecarboxylic acid (3-{5-cyclopropyl-2-[3-(4-methyl-piperazine-1-carbonyl)-phenylamino]-pyrimidin-4-ylamino}-propyl)-amide] | < 100 nM
4 | CN1CCC(CNC(=O)c2cccc(Nc3ncc(C4CC4)c(NCCCNC(=O)C4CCC4)n3)c2)CC1 [Example 78, 3-{4-[3-(Cyclobutanecarbonyl-amino)-propylamino]-5-cyclopropyl-pyrimidin-2-ylamino}-N-(1-methyl-piperidin-4-ylmethyl)-benzamide] | < 100 nM
5 | CN(CCN1CCOCC1)C(=O)c1cccc(Nc2ncc(C3CC3)c(NCCCNC(=O)C3CCC3)n2)c1 [Example 80, 3-{4-[3-(Cyclobutanecarbonyl-amino)-propylamino]-5-cyclopropyl-pyrimidin-2-ylamino}-N-methyl-N-(2-morpholin-4-yl-ethyl)-benzamide] | < 100 nM
6 | O=C(NCCCNc1nc(Nc2cccc(Cn3cncn3)c2)ncc1C1CC1)C1CCC1 [Example 83, Cyclobutanecarboxylic acid {3-[5-cyclopropyl-2-(3-1,2,4-triazol-1-ylmethyl-phenylamino)-pyrimidin-4-ylamino]-propyl}-amide] | < 100 nM
7 | Cn1ccc(-c2cccc(Nc3ncc(C4CC4)c(NCCCNC(=O)C4CCC4)n3)c2)n1 [Example 84, Cyclobutanecarboxylic acid (3-{5-cyclopropyl-2-[3-(1-methyl-1H-pyrazol-3-yl)-phenylamino]-pyrimidin-4-ylamino}-propyl)-amide] | < 100 nM
8 | O=C(NCCCNc1nc(Nc2cccc(-n3cncn3)c2)ncc1C1CC1)C1CCC1 [Example 86, Cyclobutanecarboxylic acid (3-{5-cyclopropyl-2-[3-(2H-1,2,4-triazol-1-yl)-phenylamino]-pyrimidin-4-ylamino}-propyl)-amide] | < 100 nM
9 | O=C(NCCCNc1nc(Nc2cccc(-c3cnco3)c2)ncc1C1CC1)C1CCC1 [Example 87, Cyclobutanecarboxylic acid {3-[5-cyclopropyl-2-(3-oxazol-5-yl-phenylamino)-pyrimidin-4-ylamino]-propyl}-amide] | < 100 nM
10 | O=C(NCc1ncc[nH]1)c1cccc(Nc2ncc(C3CC3)c(NCCCNC(=O)C3CCC3)n2)c1 [Example 89, 3-{4-[3-(Cyclobutanecarbonyl-amino)-propylamino]-5-cyclopropyl-pyrimidin-2-ylamino}-N-(1H-imidazol-2-ylmethyl)-benzamide. Hydrochloride salt] | < 100 nM
11 | CN1CCN(c2cccc(Nc3ncc(C4CC4)c(NCCCNC(=O)C4CCC4)n3)c2)CC1 [Example 91, Cyclobutanecarboxylic acid (3-{5-cyclopropyl-2-[3-(4-methyl-piperazin-1-yl)-phenylamino]-pyrimidin-4-ylamino}-propyl)-amide. Trifluoroacetic acid salt] | < 100 nM
12 | O=C(NCCCNc1nc(Nc2ccc(N3CCOCC3)nc2)ncc1C1CC1)C1CCC1 [Example 93, Cyclobutanecarboxylic acid {3-[5-cyclopropyl-2-(6-morpholin-4-yl-pyridin-3-ylamino)-pyrimidin-4-ylamino]-propyl}-amide] | < 100 nM
13 | O=C(NCCCNc1nc(Nc2cccc(-c3nnn[nH]3)c2)ncc1C1CC1)C1CCC1 [Example 94, Cyclobutanecarboxylic acid (3-{5-cyclopropyl-2-[3-(2H-tetrazol-5-yl)-phenylamino]-pyrimidin-4-ylamino}-propyl)-amide] | 100 to 1000 nM
14 | O=C(O)Cc1cccc(Nc2ncc(C3CC3)c(NCCCNC(=O)C3CCC3)n2)c1 [Example 95, (3-{4-[3-(Cyclobutanecarbonyl-amino)-propylamino]-5-cyclopropyl-pyrimidin-2-ylamino}-phenyl)-acetic acid. Hydrochloride] | < 100 nM
15 | O=C(NCCCNc1nc(Nc2ccc(Cl)nc2)ncc1C1CC1)C1CCC1 [Example 99, Cyclobutanecarboxylic acid {3-[2-(6-chloro-pyridin-3-ylamino)-5-cyclopropyl-pyrimidin-4-ylamino]-propyl}-amide] | < 100 nM
16 | CN(C)CCN(C)c1ccc(Nc2ncc(C3CC3)c(NCCCNC(=O)C3CCC3)n2)cn1 [Example 100, Cyclobutanecarboxylic acid [3-(5-cyclopropyl-2-{6-[(2-dimethylamino-ethyl)-methyl-amino]-pyridin-3-ylamino}-pyrimidin-4-ylamino)-propyl]-amide] | < 100 nM
17 | CN(CCN1CCOCC1)c1ccc(Nc2ncc(C3CC3)c(NCCCNC(=O)C3CCC3)n2)cn1 [Example 102, Cyclobutanecarboxylic acid [3-(5-cyclopropyl-2-{6-[methyl-(2-morpholin-4-yl-ethyl)-amino]-pyridin-3-ylamino}-pyrimidin-4-ylamino)-propyl]-amide] | < 100 nM

Second part, the compound after the results:

Row | IC50 | Compound
18 | < 100 nM | COCCNC(=O)c1cccc(Nc2ncc(C3CC3)c(NCCCNC(=O)C3CCC3)n2)c1 [Example 73, 3-{4-[3-(Cyclobutanecarbonyl-amino)-propylamino]-5-cyclopropyl-pyrimidin-2-ylamino}-N-(2-methoxy-ethyl)-benzamide]
19 | < 100 nM | CN(C)CCN(C)C(=O)c1cccc(Nc2ncc(C3CC3)c(NCCCNC(=O)C3CCC3)n2)c1 [Example 76, 3-{4-[3-(Cyclobutanecarbonyl-amino)-propylamino]-5-cyclopropyl-pyrimidin-2-ylamino}-N-(2-dimethylamino-ethyl)-N-methyl-benzamide]
20 | < 100 nM | CN(C)CCCN(C)C(=O)c1cccc(Nc2ncc(C3CC3)c(NCCCNC(=O)C3CCC3)n2)c1 [Example 79, 3-{4-[3-(Cyclobutanecarbonyl-amino)-propylamino]-5-cyclopropyl-pyrimidin-2-ylamino}-N-(3-dimethylamino-propyl)-N-methyl-benzamide]
21 | < 100 nM | CN(C)C1CCN(C(=O)c2cccc(Nc3ncc(C4CC4)c(NCCCNC(=O)C4CCC4)n3)c2)CC1 [Example 81, Cyclobutanecarboxylic acid (3-{5-cyclopropyl-2-[3-(4-dimethylamino-piperidine-1-carbonyl)-phenylamino]-pyrimidin-4-ylamino}-propyl)-amide]
22 | 100 to 1000 nM | CN1CCC(NC(=O)c2cccc(Nc3ncc(C4CC4)c(NCCCNC(=O)C4CCC4)n3)c2)CC1 [Example 82, 3-{4-[3-(Cyclobutanecarbonyl-amino)-propylamino]-5-cyclopropyl-pyrimidin-2-ylamino}-N-(1-methyl-piperidin-4-yl)-benzamide]
23 | < 100 nM | O=C(NCCCNc1nc(Nc2ccc(F)c(F)c2)ncc1C1CC1)C1CCC1 [Example 85, Cyclobutanecarboxylic acid {3-[5-cyclopropyl-2-(3,4-difluoro-phenylamino)-pyrimidin-4-ylamino]-propyl}-amide]
24 | < 100 nM | O=C1NCc2ccc(Nc3ncc(C4CC4)c(NCCCNC(=O)C4CCC4)n3)cc21 [Example 88, Cyclobutanecarboxylic acid {3-[5-cyclopropyl-2-(3-oxo-2,3-dihydro-1H-isoindol-5-ylamino)-pyrimidin-4-ylamino]-propyl}-amide hydrochloride salt]
25 | < 100 nM | O=C1NCc2cc(Nc3ncc(C4CC4)c(NCCCNC(=O)C4CCC4)n3)ccc21 [Example 90, Cyclobutanecarboxylic acid {3-[5-cyclopropyl-2-(1-oxo-2,3-dihydro-1H-isoindol-5-ylamino)-pyrimidin-4-ylamino]-propyl}-amide. Trifluoroacetic acid salt]
26 | < 100 nM | O=C(NCCCNc1nc(Nc2ccc3nc[nH]c3c2)ncc1C1CC1)C1CCC1 [Example 96, Cyclobutanecarboxylic acid {3-[2-(3H-benzimidazol-5-ylamino)-5-cyclopropyl-pyrimidin-4-ylamino]-propyl}-amide]
27 | < 100 nM | O=C(NCCCNc1nc(Nc2ccc(Br)nc2)ncc1C1CC1)C1CCC1 [Example 97, Cyclobutanecarboxylic acid {3-[2-(6-bromo-pyridin-3-ylamino)-5-cyclopropyl-pyrimidin-4-ylamino]-propyl}-amide]
28 | < 100 nM | O=C(NCCCNc1nc(Nc2ccc(I)nc2)ncc1C1CC1)C1CCC1 [Example 98, Cyclobutanecarboxylic acid {3-[5-cyclopropyl-2-(6-iodo-pyridin-3-ylamino)-pyrimidin-4-ylamino]-propyl}-amide]
